According to patent publication US20220362219A1, “RETINA REGENERATION THROUGH EPIGENETICS MANIPULATION” (Baylor College of Medicine, priority 2019, published 2022):
Entries after “also recorded” stand apart in the source; their conditions may differ.

Tests used:
[1] = test system: histone markers H3K27Ac and H3K9Me3 in the retina; assay: Chromatin modification in the retina after intravitreal injection (antibody staining of histone markers); type: in vivo, mouse; details: FIG. 2
From the text: The outer nuclear layers (ONL) and the inner nuclear layers (INL) of the respective retina are shown. Markers related to reduced levels of histone acetylation (H3K27Ac) and increased levels of histone […] are identified with corresponding antibodies.
Further evidence is provided that HATi are useful for chromatin modifications that lead to epigenomic manipulation, thereby leading to regeneration of retinal cells. […] Upon intravitreal injection of the compound SYC1127, there is reduction in the level of histone acetylation as expected, such as with H3K27Ac (an epigenetic modification to Histone H3 that is a mark that indicates the acetylation at the 27th lysine residue of the Histone H3 protein). At the same time, the level of chromatin-repressing histone markers, such as H3K9Me3, is increased.

[2] = test system: wild-type control retina; assay: Intravitreal injection in wild-type control retina (H&E); type: in vivo
Method: (§1) FIGS. 1A-1C concern an example of retinal regeneration in Spata7-mutated (KO) retinal cells. (1A) One example of a timeline for studies, where the examples of timepoints are post-natal day 14, 21, and 34, respectively. (1B) Hematoxylin and eosin (H&E) staining for Spata7 KO mice versus wild-type control. Eyes were injected with SYC1127 (treated) eye compared to PBS-injected control. (1C) Immunofluorescence staining for Cone-rod homeobox protein (CRX, a marker for photoreceptor cells and bipolar cells); Glial fibrillary acidic protein (GFAP, a marker for Müller glial cells); and RNA Binding Protein, MRNA Processing Factor (RBPMS, a marker for retinal ganglion cells (RGC)) in Spata7 KO-treated eye (treated with SYC1127) and control eye (treated with PBS).
(§2) H&E staining of all three neural layers of the retina is shown following intravitreal injection of SYC1127 in wild-type mice vs. Spata7 KO mutants.
In this present example, one example of a potent Histone Acetylation Transferase inhibitor (HATi), the compound SYC1127, is administered by intravitreal injection in a retinal degeneration mouse model having a knockout mutation in Spata7. An example of an injection regimen is provided in FIG. 1A, in which there are multiple intravitreal injections. […]

[3] = test system: Spata7 mutant retina; assay: Intravitreal injection in Spata7 knockout retinal degeneration mouse model (H&E, immunohistochemistry); type: in vivo
Method: as §1, §2
Immunohistochemistry using antibodies that bind Sox9 or GFAP, both markers of Müller glial cells, is provided for SYC1127-treated Spata7 KO mutants vs. PBS controls.
In this present example, one example of a potent Histone Acetylation Transferase inhibitor (HATi), the compound SYC1127, is administered by intravitreal injection in a retinal degeneration mouse model having a knockout mutation in Spata7. An example of an injection regimen is provided in FIG. 1A, in which there are multiple intravitreal injections. […] To examine if these newly generated cells are indeed differentiated properly, immunohistochemistry (IHC) using antibodies against certain cell type-specific markers is performed. […] The number of regenerative cells is much higher than that of previously reported by others, making it useful for therapy.
Retinal regeneration is induced through epigenomics manipulation, in particular embodiments. […] As at least one type of retinal cells, retinal ganglion cells are induced following administration of SYC1127.

**Q.** With `c1cc(-c2ccc(-c3ncc(OCC4CCNCC4)nc3-c3ccc(-c4ccoc4)cc3)cc2)co1` [SYC1127, 2,3-bis(4-(furan-3-yl)phenyl)-5-(piperidin-4-ylmethoxy)pyrazine] as the compound, how does the “level of chromatin-repressing histone markers (H3K9Me3)” value [1] read?
**A.** The value was “increased”.

**Q.** And the “level of histone acetylation (H3K27Ac)” value [1]?
**A.** The value was “reduction”.

**Q.** What about the “toxicity of injection of the drug” value ([2]; FIG. 1B) of the same compound?
**A.** Its value is “not toxic”.

**Q.** What about the “change in wild-type control retina” value ([2]; wild-type, FIG. 1B / FIG. 3) of the same compound?
**A.** Its value is “little change; also recorded: no changes are observed”.

**Q.** And the “migration of Müller glial cells” value ([3]; Spata7 KO, IHC, FIG. 5)?
**A.** Its value is “Migration of Müller glial cells from the INL to photoreceptor and retinal ganglion cell layers”.

**Q.** What about the “number of Müller glial cells (Sox9 positive cells and GFAP staining)” value ([3]; Spata7 KO, IHC, FIG. 5) of the same compound?
**A.** Its value is “Increase in the number of Müller glial cells”.

**Q.** What about the “thickness of neuronal layers vs uninjected Spata7 mutant retina” value ([3]; intravitreal injection, H&E, FIG. 1B) of the same compound?
**A.** The value was “thickening of all three neuronal layers”.

**Q.** What about the “cell proliferation in Spata7 mutant retina” value ([3]; intravitreal injection, H&E, FIG. 1B / FIG. 3) of the same compound?
**A.** Its value is “extensive cell proliferation; also recorded: proliferation of all three neural layers of the retina”.

**Q.** And the “Müller glia cell activation (GFAP staining)” value ([3]; intravitreal injection, IHC, FIG. 1C)?
**A.** Its value is “massive elevated Müller glia cell activation”.

**Q.** And the “retinal ganglion cells (RBPMS staining)” value ([3]; intravitreal injection, IHC, FIG. 1C / FIG. 4)?
**A.** The value was “multiple layers of cells that are positive for retinal ganglion cells (RGC) are observed; also recorded: increase of cells in the RGC layer”.

**Q.** What about the “regeneration of retinal neurons in degenerating retina” value ([3]; intravitreal injection, overall conclusion) of the same compound?
**A.** Its value is “complete regeneration of retinal neurons”.
